Results from ChEMBL document CHEMBL1128309, “Antitumor activity of 9(R)-dihydrotaxane analogs” (1995).

What was measured:
Type in all cases: functional
B16-F10 = experiment: Cytotoxicity against mouse melanoma B16F10 cell line
HT-29 = experiment: Cytotoxicity against human colon adenocarcinoma HT-29 cell line
A549 = experiment: Cytotoxicity against human lung carcinoma A549 cell line
P388 = experiment: Cytotoxicity against mouse lymphocytic leukemia P388 cell line
[1] = ED50 compared to that of taxol.

SMILES	Cytotoxicity (B16-F10)	Cytotoxicity (HT-29)	Cytotoxicity (A549)	Cytotoxicity (P388)	Ratio [1]
CC(=O)O[C@@H]1C2=C(C)[C@@H](OC(=O)[C@H](O)[C@@H](NC(=O)c3ccccc3)c3ccccc3)C[C@@](O)([C@@H](OC(=O)c3ccccc3)[C@@H]3[C@]4(OC(C)=O)CO[C@@H]4C[C@H](O)[C@@]3(C)[C@H]1O)C2(C)C (stereo in doubt; 14a) [listing 1 of 2 here]	39 ng/mL	1.9 ng/mL	11 ng/mL	140 ng/mL	–
CC(=O)O[C@@H]1C2=C(C)[C@@H](OC(=O)[C@H](O)[C@@H](NC(=O)c3ccccc3)c3ccccc3)C[C@@](O)([C@@H](OC(=O)c3ccccc3)[C@@H]3[C@]4(O)CO[C@@H]4C[C@H](O)[C@@]3(C)[C@H]1O)C2(C)C	>1000 ng/mL	>1000 ng/mL	>1000 ng/mL	>1000 ng/mL	> 10
C=CCO[C@H]1C[C@H]2OC[C@@]2(OC(C)=O)[C@H]2[C@H](OC(=O)c3ccccc3)[C@]3(O)C[C@H](OC(=O)[C@H](O)[C@@H](NC(=O)c4ccccc4)c4ccccc4)C(C)=C([C@@H](OC(C)=O)[C@H](O)[C@]12C)C3(C)C	2.7 ng/mL	1.2 ng/mL	1 ng/mL	5.3 ng/mL	1.4
CC(=O)O[C@H]1C(=O)[C@@]2(C)[C@H]([C@H](OC(=O)c3ccccc3)[C@]3(O)C[C@H](OC(=O)[C@H](O)[C@@H](NC(=O)c4ccccc4)c4ccccc4)C(C)=C1C3(C)C)[C@]1(OC(C)=O)CO[C@@H]1C[C@@H]2O [PACLITAXEL]	6.3 ng/mL	3.5 ng/mL	4.3 ng/mL	11 ng/mL	1
CCN(CC)CCO[C@H]1C[C@H]2OC[C@@]2(OC(C)=O)[C@H]2[C@H](OC(=O)c3ccccc3)[C@]3(O)C[C@H](OC(=O)[C@H](O)[C@@H](NC(=O)c4ccccc4)c4ccccc4)C(C)=C([C@@H](OC(C)=O)[C@H](O)[C@]12C)C3(C)C	110 ng/mL	108 ng/mL	400 ng/mL	310 ng/mL	2.61
CO[C@H]1[C@H](OC(C)=O)C2=C(C)[C@@H](OC(=O)[C@H](O)[C@@H](NC(=O)c3ccccc3)c3ccccc3)C[C@@](O)([C@@H](OC(=O)c3ccccc3)[C@@H]3[C@]4(OC(C)=O)CO[C@@H]4C[C@H](O)[C@]31C)C2(C)C	4.8 ng/mL	3.1 ng/mL	4.7 ng/mL	7.8 ng/mL	1.74
CC(=O)O[C@@H]1C2=C(C)[C@@H](OC(=O)[C@H](O)[C@@H](NC(=O)c3ccccc3)c3ccccc3)C[C@@](O)([C@@H](OC(=O)c3ccccc3)[C@@H]3[C@]4(OC(C)=O)CO[C@@H]4C[C@H](O)[C@@]3(C)[C@H]1O)C2(C)C (stereo in doubt; 14a) [listing 2 of 2 here]	–	–	–	–	0.83
CCC1O[C@H]2C[C@H]3OC[C@@]3(OC(C)=O)[C@H]3[C@H](OC(=O)c4ccccc4)[C@]4(O)C[C@H](OC(=O)[C@H](O)[C@@H](NC(=O)c5ccccc5)c5ccccc5)C(C)=C([C@@H](OC(C)=O)[C@H](O1)[C@]23C)C4(C)C (some centres undefined)	15 ng/mL	16 ng/mL	23 ng/mL	22 ng/mL	–
CO[C@H]1C[C@H]2OC[C@@]2(OC(C)=O)[C@H]2[C@H](OC(=O)c3ccccc3)[C@]3(O)C[C@H](OC(=O)[C@H](O)[C@@H](NC(=O)c4ccccc4)c4ccccc4)C(C)=C([C@@H](OC(C)=O)[C@H](O)[C@]12C)C3(C)C	1.5 ng/mL	1.4 ng/mL	1.2 ng/mL	3.9 ng/mL	0.92
CO[C@H]1[C@H](OC(C)=O)C2=C(C)[C@@H](OC(=O)[C@H](O)[C@@H](NC(=O)OC(C)(C)C)c3ccccc3)C[C@@](O)([C@@H](OC(=O)c3ccccc3)[C@@H]3[C@]4(OC(C)=O)CO[C@@H]4C[C@H](O)[C@]31C)C2(C)C	0.9 ng/mL	0.5 ng/mL	0.1 ng/mL	1.3 ng/mL	0.51
CC(=O)O[C@@H]1C2=C(C)[C@@H](OC(=O)[C@H](O)[C@@H](NC(=O)c3ccccc3)c3ccccc3)C[C@@](O)([C@@H](OC(=O)c3ccccc3)[C@@H]3[C@]4(OC(C)=O)CO[C@@H]4C[C@@H]4OC(=S)O[C@@H]1[C@]43C)C2(C)C	20 ng/mL	11 ng/mL	19 ng/mL	35 ng/mL	2.78
CC(=O)OCCO[C@H]1C[C@H]2OC[C@@]2(OC(C)=O)[C@H]2[C@H](OC(=O)c3ccccc3)[C@]3(O)C[C@H](OC(=O)[C@H](O)[C@@H](NC(=O)c4ccccc4)c4ccccc4)C(C)=C([C@@H](OC(C)=O)[C@H](O)[C@]12C)C3(C)C	43 ng/mL	31 ng/mL	120 ng/mL	79 ng/mL	2.47
CC(=O)O[C@@H]1C2=C(C)[C@@H](OC(=O)[C@H](O)[C@@H](NC(=O)c3ccccc3)c3ccccc3)C[C@@](O)([C@@H](OC(=O)c3ccccc3)[C@@H]3[C@]4(OC(C)=O)CO[C@@H]4C[C@@H]4OC(C)(C)O[C@@H]1[C@]43C)C2(C)C	34 ng/mL	29 ng/mL	34 ng/mL	42 ng/mL	0.76
CO[C@H]1C[C@H]2OC[C@@]2(OC(C)=O)[C@H]2[C@H](OC(=O)c3ccccc3)[C@]3(O)C[C@H](OC(=O)[C@H](O)[C@@H](NC(=O)OC(C)(C)C)c4ccccc4)C(C)=C([C@@H](OC(C)=O)[C@H](O)[C@]12C)C3(C)C	0.2 ng/mL	0.15 ng/mL	0.27 ng/mL	0.6 ng/mL	0.35
CC(=O)O[C@@]12CO[C@@H]1C[C@H](O)[C@]1(C)[C@@H]2[C@H](OC(=O)c2ccccc2)[C@]2(O)C[C@H](OC(=O)[C@H](O)[C@@H](NC(=O)OC(C)(C)C)c3ccccc3)C(C)=C([C@@H](O)[C@@H]1O)C2(C)C	0.4 ng/mL	0.65 ng/mL	0.26 ng/mL	2.8 ng/mL	1.31
CC(=O)O[C@@H]1C2=C(C)[C@@H](OC(=O)[C@H](O)[C@@H](NC(=O)c3ccccc3)c3ccccc3)C[C@@](O)([C@@H](OC(=O)c3ccccc3)[C@@H]3[C@]4(OC(C)=O)CO[C@@H]4C[C@H](OCCO)[C@@]3(C)[C@H]1O)C2(C)C	119 ng/mL	10 ng/mL	39 ng/mL	170 ng/mL	1.77
CC(=O)O[C@@H]1C2=C(C)[C@@H](OC(=O)[C@H](O)[C@@H](NC(=O)c3ccccc3)c3ccccc3)C[C@@](O)([C@@H](OC(=O)c3ccccc3)[C@@H]3[C@]4(OC(C)=O)CO[C@@H]4C[C@H](O)[C@@]3(C)[C@H]1O)C2(C)C (stereo in doubt; 2) [listing 1 of 2 here]	25 ng/mL	9.6 ng/mL	22 ng/mL	57 ng/mL	–
CC(=O)O[C@@H]1C2=C(C)[C@@H](OC(=O)[C@H](O)[C@@H](NC(=O)c3ccccc3)c3ccccc3)C[C@@](O)([C@@H](OC(=O)c3ccccc3)[C@@H]3[C@]4(OC(C)=O)CO[C@@H]4C[C@H](OCC(O)CO)[C@@]3(C)[C@H]1O)C2(C)C (some centres undefined)	>1000 ng/mL	310 ng/mL	626 ng/mL	>1000 ng/mL	2.02
CC(=O)O[C@@H]1C2=C(C)[C@@H](OC(=O)[C@H](O)[C@@H](NC(=O)c3ccccc3)c3ccccc3)C[C@@](O)([C@@H](OC(=O)c3ccccc3)[C@@H]3[C@]4(OC(C)=O)CO[C@@H]4C[C@H](OC(C)=O)[C@@]3(C)[C@H]1OC(C)=O)C2(C)C	13 ng/mL	3.3 ng/mL	15 ng/mL	22 ng/mL	0.91
CC(=O)O[C@@H]1C2=C(C)[C@@H](OC(=O)[C@H](O)[C@@H](NC(=O)c3ccccc3)c3ccccc3)C[C@@](O)([C@@H](OC(=O)c3ccccc3)[C@@H]3[C@]4(OC(C)=O)CO[C@@H]4C[C@H](O)[C@@]3(C)[C@H]1O)C2(C)C (stereo in doubt; 2) [listing 2 of 2 here]	–	–	–	–	0.75
